Laboratory results as given in patent US20090176817A1, “Method of Treatment of Diarrhea-Predominant Irritable Bowel Syndrome in a Subject” (priority 2005, published 2009).

Tested on: diarrhea-predominant IBS subjects
Test: Study S241.3.011: weekly diary questions on adequate relief
Type: in vivo, human
Details: for Overall responder rate, adequate relief of IBS symptoms / Overall responder rate, adequate relief of abdominal pain/discomfort / Overall responder rate, adequate relief of abnormal bowel habits: observed case
Description: Study S241.3.011 was a Phase III, double-blind, placebo-controlled, randomized, multinational study to investigate the safety and efficacy of 2 mg TID of cilansetron for a period of 12 weeks followed by a rerandomized, placebo-controlled four-week treatment period, in diarrhea-predominant IBS subjects. The study was conducted in six countries including the US. A total of 2115 subjects consented to participate, and 770 subjects were randomized. A total of 746 subjects were analyzed for efficacy and 755 subjects were analyzed for safety. Diagnosis and main criteria for inclusion were IBS subjects satisfying the Rome I criteria (1992); the diarrhea predominant sub-population of the Rome II criteria; and a minimum abdominal pain/discomfort, stool frequency and consistency determined during the run-in period. Subjects were treated with cilansetron 2 mg tablets given orally TID or matching placebo tablets given orally TID for 12 weeks followed by a rerandomized, placebo-controlled four-week treatment period.
The primary efficacy parameter was the number of months that a subject was a responder for IBS symptoms (abdominal pain, abdominal discomfort, abnormal bowel habits) over the 12-week treatment period. A responder for a month (monthly responder) was defined as a subject who answered the weekly question with “yes” at least twice for that month. The two main secondary efficacy parameters were the monthly responder rates based on the “adequate relief” questions regarding abdominal pain/discomfort and abnormal bowel habits during the 12-week treatment period. The overall response rate and responder rate for the weekly diary questions on adequate relief at each month and all months, the adequate relief rate, the number of subjects with adequate relief by week, daily diary questions, IBS-QOL scores, and the interruption of activities were also assessed. Safety was evaluated by physical examination, ECG, vital signs, laboratory evaluations, concomitant medications, and AEs.
Subjects who were initially randomized to the cilansetron 2 mg TID group and rerandomized to placebo, will be referred to as the C/P treatment group; subjects initially randomized to the placebo group and rerandomized to placebo will be referred to as the P/P treatment group; the P/C and C/C treatment group nomenclature follow the same principle. Of the 591 subjects who completed the three-month treatment period, 576 subjects were rerandomized and thus divided into the following treatment groups: 150 subjects in the C/C treatment group, 140 subjects in the C/P treatment group, 136 subjects in the P/C treatment group, and 150 subjects in the P/P treatment group. Of the 576 subjects rerandomized, a higher percentage of subjects in the C/C treatment group (99%) completed the study compared with the C/P (95%), P/C (93%), and the P/P (95%) treatment groups.
Studies S24 1.3.OO6, S24 1.3.0 1 1, and S24 1.3.009 used the following efficacy measurements: • The subjects answered the following three questions with “yes” or “no” using a phone diary at the end of each week: • a) During the last week, did you experience adequate relief of your IBS symptoms, such as abdominal pain, abdominal discomfort, abnormal bowel habits? • b) During the last week, did you experience adequate relief of your abdominal pain and/or discomfort? • c) During the last week, did you experience adequate relief of your abnormal bowel habits? • The subjects rated the following symptoms using the phone diary at the end of each day: • abdominal pain/discomfort (five-point scale); • stool consistency (seven-point Bristol Stool Scale); • stool frequency (number of bowel movements each day); • urgency (five-point scale); • straining (yes or no); • feeling of incomplete defecation (yes or no); • bloating or feeling of abdominal distension (five-point scale). • In Studies S241 A006 and S241.3.009, subjects completed the IBS-QOL Survey at Baseline (Day 1) and at the end of treatment. […]

[1] = Female subjects, three-month treatment period, monthly LOCF, ITT, 2 mg TID
[2] = Female subjects, three-month treatment period, ITT, 2 mg TID
[3] = Male subjects, three-month treatment period, monthly LOCF, ITT, 2 mg TID
[4] = Male subjects, three-month treatment period, ITT, 2 mg TID
[5] = RR Group C/C (cilansetron 2 mg TID, rerandomized to cilansetron)
[6] = RR Group C/P (cilansetron 2 mg TID, rerandomized to placebo)

Cc1nccn1C[C@H]1CCc2c(c3cccc4c3n2CCC4)C1=O [Cilansetron, (R)-(−)-4,5,6,8,9,10-hexahydro-10-[(2-methyl-1H-imidazol-1-yl)methyl]-11H-pyrido-[3,2,1-jk]-carbazol-11-one]
Number of months a subject was a responder: Three months (Abnormal bowel habits) [1]: 101 (39) n (%)
Number of months a subject was a responder: Three months (IBS symptoms) [1]: 96 (37) n (%)
Number of months a subject was a responder: Two months (Abdominal pain/discomfort) [1]: 57 (22) n (%)
Number of months a subject was a responder: Two months (Abnormal bowel habits) [1]: 48 (18) n (%)
Number of months a subject was a responder: Two months (IBS symptoms) [1]: 52 (20) n (%)
Number of months a subject was a responder: Zero months (Abdominal pain/discomfort) [1]: 74 (28) n (%)
Number of months a subject was a responder: Zero months (Abnormal bowel habits) [1]: 79 (30) n (%)
Number of months a subject was a responder: Zero months (IBS symptoms) [1]: 79 (30) n (%)
Overall responder rate, adequate relief of IBS symptoms [2]: 138 (53) n (%)
Overall responder rate, adequate relief of abdominal pain/discomfort [2]: 151 (58) n (%)
Overall responder rate, adequate relief of abnormal bowel habits [2]: 140 (53) n (%)
Number of months a subject was a responder: One month (Abdominal pain/discomfort) [3]: 15 (13) n (%)
Number of months a subject was a responder: One month (Abnormal bowel habits) [3]: 16 (14) n (%)
Number of months a subject was a responder: One month (IBS symptoms) [3]: 19 (17) n (%)
Number of months a subject was a responder: Three months (Abdominal pain/discomfort) [3]: 58 (50) n (%)
Number of months a subject was a responder: Three months (Abnormal bowel habits) [3]: 48 (42) n (%)
Number of months a subject was a responder: Three months (IBS symptoms) [3]: 52 (45) n (%)
Number of months a subject was a responder: Two months (Abdominal pain/discomfort) [3]: 15 (13) n (%)
Number of months a subject was a responder: Two months (Abnormal bowel habits) [3]: 18 (16) n (%)
Number of months a subject was a responder: Two months (IBS symptoms) [3]: 18 (16) n (%)
Number of months a subject was a responder: Zero months (Abdominal pain/discomfort) [3]: 27 (23) n (%)
Number of months a subject was a responder: Zero months (Abnormal bowel habits) [3]: 33 (29) n (%)
Number of months a subject was a responder: Zero months (IBS symptoms) [3]: 26 (23) n (%)
Overall responder rate, adequate relief of IBS symptoms [4]: 68 (59) n (%)
Overall responder rate, adequate relief of abdominal pain/discomfort [4]: 70 (61) n (%)
Overall responder rate, adequate relief of abnormal bowel habits [4]: 63 (55) n (%)
Responder rate, abdominal pain/discomfort (Peru): 69%
Responder rate, abnormal bowel habits (Peru): 75%
Δ Month 4 vs Month 3, responder rate, Adequate Relief of Abdominal Pain/Discomfort (RR Group C/C): 0%
Δ Month 4 vs Month 3, responder rate, Adequate Relief of Abnormal Bowel Habits (RR Group C/C): +2%
Δ Month 4 vs Month 3, responder rate, Adequate Relief of IBS Symptoms (RR Group C/C): +3%
Monthly responder rate, Adequate Relief of Abdominal Pain/Discomfort, Month 3 [5]: 70%
Monthly responder rate, Adequate Relief of Abdominal Pain/Discomfort, Month 4 [5]: 70%
Monthly responder rate, Adequate Relief of Abnormal Bowel Habits, Month 3 [5]: 68%
Monthly responder rate, Adequate Relief of Abnormal Bowel Habits, Month 4 [5]: 70%
Monthly responder rate, Adequate Relief of IBS Symptoms, Month 3 [5]: 66%
Monthly responder rate, Adequate Relief of IBS Symptoms, Month 4 [5]: 69%
Δ Month 4 vs Month 3, responder rate, Adequate Relief of Abdominal Pain/Discomfort (RR Group C/P): −16%
Δ Month 4 vs Month 3, responder rate, Adequate Relief of Abnormal Bowel Habits (RR Group C/P): −18%
Δ Month 4 vs Month 3, responder rate, Adequate Relief of IBS Symptoms (RR Group C/P): −22%
Monthly responder rate, Adequate Relief of Abdominal Pain/Discomfort, Month 3 [6]: 66%
Monthly responder rate, Adequate Relief of Abdominal Pain/Discomfort, Month 4 [6]: 50%
Monthly responder rate, Adequate Relief of Abnormal Bowel Habits, Month 3 [6]: 60%
Monthly responder rate, Adequate Relief of Abnormal Bowel Habits, Month 4 [6]: 42%
Monthly responder rate, Adequate Relief of IBS Symptoms, Month 3 [6]: 61%
Monthly responder rate, Adequate Relief of IBS Symptoms, Month 4 [6]: 39%
Overall responder rate, IBS symptoms (entire four months, C/C group): 66%
Overall responder rate, abdominal pain/discomfort (entire four months, C/C group): 70%
Overall responder rate, abnormal bowel habits (entire four months, C/C group): 69%
Overall responder rate, IBS symptoms (females): 53%
Overall responder rate, abdominal pain/discomfort (females): 58%
Overall responder rate, abnormal bowel habits (females): 53%
Overall responder rate, IBS symptoms (males): 59%
Overall responder rate, abdominal pain/discomfort (males): 61%
Overall responder rate, abnormal bowel habits (males): 55%
Overall responder rate, IBS symptoms (non-Caucasians): 66%
Overall responder rate, abdominal pain/discomfort (non-Caucasians): 66%
Overall responder rate, abnormal bowel habits (non-Caucasians): 70%
